Assay results published in patent US5554359A, “Pigmentation enhancer and method” (priority 1994, dated 1996).
*1 amine or outer side, *2 acyl side, *3 side chain or, on linkers, in order; H or OH if unused. Where a SMILES comes first, the peptide text is derived from it. Bridges are numbered along the chain shown (N, C = ends). Roman numbers before positions name the chains, in order. [ ]: non-standard residue; d: D form. Actinocin(9to1) = Cc1c2oc3c(C)ccc(C(=O)[*:1])c3nc-2c(C(=O)[*:2])c(N)c1=O; NMeV = CN[C@H](C(=O)O)C(C)C; Sar = CNCC(=O)O

Legend:
Assay type in all cases: cell-based
[1] = tested on: tyrosinase activity in mouse melanoma cells; experiment: Tyrosinase responses in mouse melanoma cells (Table 6)
Experimental: (§1) The mouse melanoma cell lines used to study the effects of lysosomotropic agents herein were the Cloudman S91 cell line (ATCC no. CCL 53.1) and two subclones of this line developed in our laboratory, the amelanotic line, AM-7, and a melanotic line, MEL-11A. All melanoma cell lines were grown in Ham's F-10 nutrient medium supplemented with 10% horse serum, penicillin (100 units/ml), and streptomycin (100 μg/ml). The normal human melanocyte cell strains used in this study were derived from foreskins of either neonares or from boys 2-6 years old. Human melanocyte cultures were grown in Ham's F-10 nutrient medium supplemented with 10% horse serum, 5% fetal bovine serum (FBS), 32 nM TPA (12-O-tetradecanoylphorbol 13-acetate), 10^-4 M IBMX(3-isobutyl-1-methylxanthine), penicillin (100 units/ml), and streptomycin (100 μg/ml).
To determine tyrosinase activity in situ in either melanoma cells or in human melanocyte cultures, the tyrosine hydroxylase activity of the enzyme was determined. Cells were seeded into 60-mm culture dishes at 2×10^5 cells/dish and allowed to attach overnight. The medium was then exchanged for the appropriate growth medium supplemented with 1 μCi/ml of [^3 H]tyrosine (L-ring-3,5-^3 H]-tyrosine, DuPont New England Nuclear), and with hormones, where indicated. Cells were grown in labeled medium for 24 hours, and at this time, the medium was removed and assayed for the presence of ^3 H2 O using the charcoal absorption method of Pomerantz. Tyrosinase activity in cell homogenates was determined by sonicating cell pellets in 0.1-M sodium phosphate buffer (pH 6.8) and then incubating 50-μl aliquots in 0.5 ml of a reaction mixture containing 0.1-mM tyrosine, 2 μCi/ml of [^3 H]tyrosine, 0.1-mM L-DOPA (dihydroxyphenylalanine), and 0.1 mM PMSF (phenylmethylsulfonyl fluoride) at 37° C. for 2 hours. Reactions were terminated by the addition of 1 ml of charcoal (10% w/v in 0.1-N HCl). Samples were centrifuged, and the supernatants removed for determination of the amount of ^3 H2 O produced. […]

[2] = tested on: tyrosinase activity in human melanocytes from black individuals; experiment: Tyrosinase activity in human melanocytes from black skin; settings: 10 mM
Experimental: as §1, with “Human melanocyte cultures were grown in Ham's F-10 nutrient medium supplemented with 10% horse serum, 5% fetal bovine serum (FBS), 32 nM TPA (12-O-tetradecanoylphorbol 13-acetate), 10^-4 M IBMX(3-isobutyl-1-methylxanthine), penicillin (100 units/ml), and streptomycin (100 μg/ml).” left out
(§2) To determine tyrosinase activity in situ in either melanoma cells or in human melanocyte cultures, the tyrosine hydroxylase activity of the enzyme was determined. […] Tyrosinase activity in cell homogenates was determined by sonicating cell pellets in 0.1-M sodium phosphate buffer (pH 6.8) and then incubating 50-μl aliquots in 0.5 ml of a reaction mixture containing 0.1-mM tyrosine, 2 μCi/ml of [^3 H]tyrosine, 0.1-mM L-DOPA (dihydroxyphenylalanine), and 0.1 mM PMSF (phenylmethylsulfonyl fluoride) at 37° C. for 2 hours. […]
Dose/response parameters for ammonium chloride action were determined. […]

[3] = tested on: melanin in human melanocytes; experiment: Melanin content in human melanocytes
Experimental: as §1
The amount of melanin in melanoma cells or in melanocytes was determined by incubating cell pellets in 2 ml of 1-N NaOH for 48 hours at 37° C. and then measuring the solubilized melanin at 400 nm.
(§3) Dose/response parameters for ammonium chloride action were determined. […] Since tyrosinase is the rate-limiting enzyme for melanin synthesis, the stimulation of this enzyme by ammonium chloride should lead to increased melanin content of stimulated cells. […] Ammonium chloride increased tyrosinase activity in melanocytes from white-skinned individuals twenty-fold within 24 hours and by this time melanin contents had increased two-fold. Two other lysosomotropic agents, monensin and nigericin, were tested for their effects on tyrosinase activity. […] Thus, lysosomotropic agents have the ability to stimulate tyrosinase activity and melanin production in human melanocytes derived from white-skinned individuals, and to reduce melanin production in melanocytes from black-skinned people.

[4] = tested on: tyrosinase activity in MEL-11A cells; experiment: Tyrosinase activity in melanotic mouse melanoma clone MEL-11A; settings: MSH 10^-7 M or ammonium chloride 10 mM; 24 h; FIG. 4 bottom
Experimental: as §1, §2

[5] = tested on: tyrosinase activity in human melanocytes from white-skinned individuals; experiment: Tyrosinase activity in human melanocytes from white skin
Experimental: as §1
(§4) To determine tyrosinase activity in situ in either melanoma cells or in human melanocyte cultures, the tyrosine hydroxylase activity of the enzyme was determined. Cells were seeded into 60-mm culture dishes at 2×10^5 cells/dish and allowed to attach overnight. The medium was then exchanged for the appropriate growth medium supplemented with 1 μCi/ml of [^3 H]tyrosine (L-ring-3,5-^3 H]-tyrosine, DuPont New England Nuclear), and with hormones, where indicated. Cells were grown in labeled medium for 24 hours, and at this time, the medium was removed and assayed for the presence of ^3 H2 O using the charcoal absorption method of Pomerantz. Tyrosinase activity in cell homogenates was determined by sonicating cell pellets in 0.1-M sodium phosphate buffer (pH 6.8) and then incubating 50-μl aliquots in 0.5 ml of a reaction mixture containing 0.1-mM tyrosine, 2 μCi/ml of [^3 H]tyrosine, 0.1-mM L-DOPA (dihydroxyphenylalanine), and 0.1 mM PMSF (phenylmethylsulfonyl fluoride) at 37° C. for 2 hours. Reactions were terminated by the addition of 1 ml of charcoal (10% w/v in 0.1-N HCl). Samples were centrifuged, and the supernatants removed for determination of the amount of ^3 H2 O produced.
as §3

[6] = tested on: tyrosinase activity in AM-7 cells; experiment: Tyrosinase activity in amelanotic mouse melanoma clone AM-7
Experimental: as §1, §2

[7] = tested on: tyrosinase activity in human melanocytes; experiment: Tyrosinase responses in human melanocytes (Table 6); settings: Table 6 text
Experimental: as §1, §4
Hormone responsiveness in human melanocyte cell cultures were examined (for these studies, melanocytes derived from skin type III were used). […] Tyrosinase activity and melanin content typically double with a 48-hour exposure to IBMX. […] The steroid hormones, for the most part, caused little, if any, change in tyrosinase activity at the concentrations used.

[8] = tested on: tyrosinase activity in mouse melanoma cells; experiment: Tyrosinase activity in Cloudman S91/mouse melanoma cells, earlier studies; settings: MSH-stimulated tyrosinase activity
Experimental: The MSH response in these cells can be mimicked by treatment of cells with either cAMP analogues such as dbcAMP (dibutyryl cyclic AMP) or 8-bromo cAMP, or with inhibitors of phosphodiesterase activity such as theophylline and IBMX. […] Although it is clear that cAMP is the second messenger for MSH action, tyrosinase activity is not altered by direct incubation with activated protein kinase A, nor is tyrosinase directly phosphorylated by this kinase. Even though cAMP levels rise within minutes of treatment of cells with MSH, no increases in tyrosinase activity are detectable until 6-9 hours after exposure of cells to hormone. […] In an effort to further delineate the cellular pathways involved in the MSH stimulation of tyrosinase activity, we examined the transcriptional and translational requirements for MSH action. […] However, other studies have shown that tyrosinase may be activated in melanoma cells treated with MSH. Discussed herein are studies carried out to examine the contributions of induction and activation to the overall MSH stimulation of tyrosinase activity in melanoma cells. Further, studies on the regulation of tyrosinase in normal human melanocytes are also described and compared to those from melanoma cells.
Even more elaborate models involving an activation of tyrosinase via internalized MSH receptors have been proposed. Evidence for tyrosinase inhibitors in mouse melanocytes and melanoma has been reported by many investigators, but no such molecules have yet been isolated.

[9] = within 24 hours, white-skinned individuals

With `Cl.N` [Ammonium chloride, ammonium chloride] the “Effect on Tyrosinase Activity, Mouse Melanoma” value ([1]; Table 6, 10^-7 M except IBMX 10^-4 M, theophylline 1 mM, ammonium chloride 10 mM, A23187 not given) was “++ (>300%)”, the “tyrosinase activity in mouse melanoma cells” value ([1]; Table 6 text) was “stimulates tyrosinase activity” and the “Tyrosinase Activity” value ([2]; 48 hours, cell strain #90A6, FIG. 5) was “depressed”. The “tyrosinase activity in highly melanized melanocytes” value ([2]; black skin types, footnote c of Table 6) was “markedly inhibite”, the “melanin versus untreated cells” value ([3]; 10 mM, 3 days, cell strain 69W, FIG. 7) was “twice as much melanin than untreated cells” and the “increase in melanin contents” value [3, 9] was “two-fold”. For the same compound, the “increase in tyrosinase activity” value [4] was “four-fold increase”, the “Tyrosinase Activity” value ([5]; 10 mM, 48 hours, cell strain #84W, FIG. 5) was “markedly elevated” and the “tyrosinase activity in melanocytes derived from white skin” value ([5]; 10 mM, footnote c of Table 6) was “stimulates tyrosinase activity”. The “concentration of maximal stimulation of tyrosinase activity” value ([5]; cell strain 69W, 48 hours, FIG. 6) was 7.5 mM, the “stimulation of tyrosinase activity” value ([5]; cell strain 69W, up to four hours, FIG. 8) was “effective in stimulating tyrosinase activity” and the “increase in tyrosinase activity” value [5, 9] was “twenty-fold”. For the same compound, the “stimulation of tyrosinase activity in presence of cycloheximide” value ([6]; 10 mM ammonium chloride with or without cycloheximide, data not shown) was “stimulation occurred in cells treated with or without cycloheximide”, the “increase in tyrosinase activity” value ([6]; 10 mM ammonium chloride, 24 h, FIG. 4 top) was “two-fold increase” and the “tyrosinase activity in human melanocytes” value [7] was “stimulates tyrosinase activity”.

In the case of `Cc1c2oc3c(C)ccc(C(=O)N[C@@H]4C(=O)N[C@H](C(C)C)C(=O)N5CCC[C@H]5C(=O)N(C)CC(=O)N(C)[C@@H](C(C)C)C(=O)O[C@@H]4C)c3nc-2c(C(=O)N[C@@H]2C(=O)N[C@H](C(C)C)C(=O)N3CCC[C@H]3C(=O)N(C)CC(=O)N(C)[C@@H](C(C)C)C(=O)O[C@@H]2C)c(N)c1=O` [actinomycin D] (I: T[dV]P[Sar][NMeV] / II: T[dV]P[Sar][NMeV]; ester I:1-I:C, II:1-II:C; linker I:N-II:N via Actinocin(9to1)), the “hormonal induction of enzyme activity” value [8] is reported as “completely blocked”.

In the case of `C[C@@H]1C[C@@H]([C@H](O)CC2CC(=O)NC(=O)C2)C(=O)[C@@H](C)C1` [cycloheximide], the “hormonal induction of enzyme activity” value [8] is reported as “completely blocked”.

In the case of α-amanitin, the “hormonal induction of enzyme activity” value [8] is reported as “completely blocked”.
